pKd: −log10 of the molar value.
Biological target: T1, D-glucose/D-galactose-binding protein (GGBP), mutant form GGBP/H152C labeled with BADAN (Escherichia coli, UniProt P0AEE5, H175C)
T1 construct: gene mglB; GGBP/H152C-BADAN (BADAN linked to Cys 152)
Assay: BADAN fluorescence titration (Kd by nonlinear regression); stopped-flow binding kinetics

T1 sequence (P0AEE5 24-332 H175C limits assumed): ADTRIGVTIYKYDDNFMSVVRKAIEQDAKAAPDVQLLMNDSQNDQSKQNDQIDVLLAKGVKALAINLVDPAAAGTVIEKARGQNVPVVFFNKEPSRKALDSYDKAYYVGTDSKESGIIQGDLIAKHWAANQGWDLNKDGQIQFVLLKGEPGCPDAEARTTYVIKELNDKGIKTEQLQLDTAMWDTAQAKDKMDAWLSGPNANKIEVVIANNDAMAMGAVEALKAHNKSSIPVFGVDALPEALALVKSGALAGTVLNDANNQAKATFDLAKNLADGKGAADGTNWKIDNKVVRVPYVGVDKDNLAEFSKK

Question: `OC[C@H]1OC(O)[C@H](O)[C@@H](O)[C@@H]1O` (stereo partly shown) [Glc] was tested. Which pKd did it give?
Answer: 5.07

— article PMC3970809, “Spectral characteristics of the mutant form GGBP/H152C of D-glucose/D-galactose-binding protein labeled with fluorescent dye BADAN: influence of external factors” (PeerJ, 2014)
